In patent publication US11198869B2, “Angelman syndrome antisense treatment” (The Texas A&M University System, priority 2017, dated 2021):
pIC50: −log10 of the molar value.

How the values were obtained:
Format in all cases: cell-based, human
UBE3A [1] = assay: UBE3A steady state RNA (qRT-PCR) in GABAergic iPSC-derived neurons; settings: 10-point dose curve 1 nM-30 μM; 14 DIV to 20 DIV
UBE3A-AS = UBE3A-AS steady state RNA dose response in Angelman syndrome iPSC-derived neurons; settings: for pIC50: six days following treatment, 10-point dose curve, read-out: potency (IC50), UBE3A-AS
Method: The steady state RNA levels of target transcripts were measured using TaqMan quantitative reverse-transcription PCR (qRT-PCR) assays. Total reaction volume was 10 uL, including 2 μl of cDNA, 1× Gene Expression Master mix (4369016, Thermo Fisher Scientific, Waltham, Mass.), and 1× TaqMan primer assay (Thermo Fisher Scientific). Cycling conditions were 2 minutes at 50° C., 10 minutes at 95° C., and 40 cycles of 15 seconds at 95° C. and 1 minute at 60° C., with readings taken at the 60° C. step of every cycle. Reactions were run on a BIO-RAD T1000 CFX96 thermocycler (Bio-Rad Laboratories, Hercules Calif.), with internal control (PPIA, Hs99999904_m1, Thermo Fisher Scientific) and target [UBE3A-AS, Hs01372957_m1; SNORD116-11, Hs04275268_gH; SNORD115, Hs04275288_gH; IPW, Hs03455409_s1; SNORD109A/B, AP47WVR (Thermo Fisher Scientific); UBE3A: forward […] (SEQ ID NO:500); reverse: […] (SEQ ID NO:501); and, probe: […] (SEQ ID NO:502)] reactions performed together. Data was retrieved and analyzed with the BIORAD CFX Maestro software (Bio-Rad Laboratories). Samples with internal control Cq values ≥30 were filtered. Quality of data was visually inspected to identify discrepancies between technical and/or plate replicates. Measurements for inferential statistics and descriptive statistics consist of ΔΔCq values (2^−ΔΔCq=2^−(Cq[target]−Cq[internal control])−(Cq[target]−Cq[internal control])).
The potencies of […] and ASO-4.4.PS.L were then examined in iPSC derived-neurons from an Angelman syndrome patient with a maternal derived deletion of the 15q11-q13 region. Induced pluripotent stem cells were differentiated into neurons and then treated with a 10-point ½ log dose response curve of ASO-6.1.PO-1.O and ASO-4.4.PS.L [1 nM, 3 nM, 10 nM, 30 nM, 100 nM, 300 nM, 1 μM, 3 μM, 10 μM, and 30 μM (n=3)]. Six days following treatment, the steady state RNA levels of UBE3A-AS were measured and dose response curves were fitted as described above (FIG. 9A). […] The Emax values were similar (30 μM: ASO-4.4.PS.L=0.01±0.0007; ASO-6.1.PO-1.O=0.05±0.004) but not considered equivalent due to the confidence intervals [ASO-6.1.PO-1.O/ASO-4.4.PS.L Emax ratio: =−9.1 (Lower confidence limit=−224; Upper confidence limit=205)].
Angelman syndrome induced pluripotent stem cells derived neurons Angelman syndrome iPS cells (AG1-0 iPSCs) (ECN001, Kerafast, Boston, Mass.) were co-cultured on irradiated murine embryonic fibroblasts in human embryonic stem cell medium [DMEM/F12 (11330-057, Gibco Biosciences, Dublin, Ireland), 20% Knockout Serum Replacement (10828-028, Thermo Fisher Scientific), 1× Non-essential amino acids, 2 mM L-glutamine, […] 2-Mercaptoethanol, and 4 μg/mL basic Fibroblast Growth Factor]. For the first passage, AG1-0 cells were passaged according to the product manual for PluriSTEM Human ES/iPS Medium (SCM130, Millipore Sigma, Burlington, Mass.), which is feeder-free and utilizes Dispase II (SCM133, Millipore Sigma) to dissociate cells. Matrigel™ hESC-qualified Matrix (354277, Corning BD Biosciences, Corning, N.Y.) was used as an extracellular matrix. At the second passage, the matrix was switched to vitronectin (CC130, Millipore Sigma). During subsequent passages, areas of differentiation were manually removed until differentiated cells represented approximately <5% of the colonies. After four subsequent passages, AG1-0 cells were differentiated using the Millipore ES/iPS Neurogenesis Kit (SCR603, SCM110, and SCM111) but lacking vitronectin as an extracellular matrix. The initial passage was performed with EZ-LiFT (SCM139, Millipore Sigma) to obtain high quality iPS cells. Neural progenitor cells were frozen at stage zero (P0) and subsequently thawed for differentiation. Differentiation was performed on sterile culture plates coated with poly-D-lysine (10 μg/mL) and laminin [10 μg/mL (23017-015, Gibco) in differentiation medium (SCM111) for 10 days of differentiation. […]

UBE3A [2] = assay: UBE3A steady state RNA (qRT-PCR) in glutamatergic iPSC-derived neurons; settings: 14 DIV to 20 DIV, 10-point dose curve
Method: ASO-4 and ASO-6.1 were also examined in glutamatergic iPSC-derived neurons. Glutamatergic iPSC-derived neurons were treated at 14 DIV with a 10-point ½ log dose response curve of ASO-4 and ASO-6.1 [1 nM, 3 nM, 10 nM, 30 nM, 100 nM, 300 nM, 1 μM, 3 μM, 10 μM, and 30 μM (n=3)]. At 20 DIV, the IC50 and Emax of each ASO was estimated as described above (FIG. 5E-F and Table 15).
GABAergic and glutamatergic induced pluripotent stem cell (iPSC) derived neural precursor cells (NRC-100-010-001 and GNC-301-030-001, Cellular Dynamics International, Madison Wis.) were differentiated into neurons according to the manufactures protocol. Briefly, neural precursor cells were thawed and resuspended in chemically defined medium and added to sterile-culture plates coated with poly-D-lysine and laminin. The medium was replaced 24 hr after plating and then one-half of the medium was replaced every 3-5 days afterwards. […]
The steady state RNA levels of target transcripts were measured using TaqMan quantitative reverse-transcription PCR (qRT-PCR) assays. […] Cycling conditions were 2 minutes at 50° C., 10 minutes at 95° C., and 40 cycles of 15 seconds at 95° C. and 1 minute at 60° C., with readings taken at the 60° C. step of every cycle. […] Data was retrieved and analyzed with the BIORAD CFX Maestro software (Bio-Rad Laboratories). […]

| Compound | effect on total UBE3A RNA levels (in words) (UBE3A [1]) | Emax, normalized UBE3A-AS RNA level at 30 μM (UBE3A-AS) | pIC50 (UBE3A-AS) | effect on UBE3A RNA levels (in words) (UBE3A [2]) | further results |
| --- | --- | --- | --- | --- | --- |
| CC[C@@]1(O)C(=O)OCc2c1cc1n(c2=O)Cc2cc3c(CN(C)C)c(O)ccc3nc2-1 [Topotecan, reference compound] | increased total UBE3A RNA levels in a dose-dependent manner, except for Topotecan at higher concentrations |  |  |  |  |
| A^L*G^L*A^L*a*t*g*g*c*a*c*a*t*c*t*5mC^L*T^L*T^L*G^L (NNNATGGCACATCTNNNN; LNA gapmer, PS, 5-methylcytosine, chemistry not fully specified) [ASO-4.4.PS.L] |  | 0.01±0.0007 | 6.36 |  | fold more potent than ASO-6.1.PO-1.O (UBE3A-AS): approximately 2.7 fold |
| C^O*U^O*G^O*G^O*t*g*t*c*a*a*c*a*a*g*C^O*C^O*A^O*A^O [ASO-6.1] |  |  |  | increased UBE3A RNA levels in a dose dependent manner |  |
| C^O*U^O*G^O*G^O-t*g*t*c*a*a*c*a*a*g-C^O*C^O*A^O*A^o [ASO-6.1.PO-1.O] |  | 0.05±0.004 | 5.91 |  | ASO-6.1.PO-1.O/ASO-4.4.PS.L Emax ratio (UBE3A-AS; equivalence test): −9.1; ASO-6.1.PO-1.O/ASO-4.4.PS.L IC50 ratio (UBE3A-AS; equivalence test): 0.96 |
| U^O*A^O*G^O*A^O*A^O*t*g*g*c*a*c*a*t*c*t*C^O*U^O*U^O*G^O*G^O [ASO-4] | increased total UBE3A RNA levels in a dose-dependent manner |  |  | increased UBE3A RNA levels in a dose dependent manner |  |
